Test results from PubChem BioAssay AID2384 (Southern Research Specialized Biocontainment Screening …, 2010).
“And” between values parts separate entries of the source, which are not always exact repeats. Identical values can stand only once.

These compounds were tested on S. typhi GFP reporter counter-screen, fluorescence, 4 h (assay: inhibitors in S. typhi counter-screen strain, dose response, counter-screen for PhoP regulon inhibitor project, fluorescence, 4 h (AID 2384)).

Compound	IC50
Cc1nonc1C(=O)N/N=C/c1ccc([N+](=O)[O-])o1	51.9 µM
CC(=O)NC(=S)NNC(=O)c1ccc(Br)cc1	29.4 µM
c1ccc2cc3c(NCCN4CCOCC4)ccnc3cc2c1	88.2 µM
Fc1ccc(Nc2nc(NCc3ccco3)c3ccccc3n2)cc1	20.7 µM
CCn1ncc(/C=N\NC(=O)c2csc3ccccc23)c1C	124 µM
O=C(/C=C/c1ccccc1Cl)Nc1cccc(O)c1	49.8 µM
Cc1oc2c(O)c(O)ccc2c(=O)c1-c1ccccc1	100 µM
CN(C)c1ccc(Nc2nc(N)c3ccccc3n2)cc1	77.7 µM
Cc1cc(C(C)(C)CC(C)(C)C)ccc1OCCOCC[N+](C)(C)Cc1ccccc1	16.8 µM
Cc1c2ccncc2c(C)c2c1[nH]c1ccccc12	21.2 µM
Cc1ccc(S(=O)(=O)CCC(=O)c2ccc(O)cc2O)cc1	57.5 µM
COc1ccc(/C=N/Nc2cc(C)nc3c(C)cccc23)cc1	40.7 µM
CN1CCN(c2ccc(NC(=O)c3ccc(-c4ccc(Br)cc4)o3)cc2)CC1	19.6 µM
CCOC(=O)c1ccccc1-n1c(C)cc(C2N=C(N)Nc3nc4ccccc4n32)c1C (stereo unspecified)	39.4 µM
O=C(CC1NCCc2ccccc21)Nc1ccc(Oc2ccccc2)cc1 (stereo unspecified)	51 µM
COc1cc([N+](=O)[O-])cc(/C=N/NC(=O)CSc2ccccn2)c1O	93.2 µM
Cc1cc(C)c2nc(C)cc(N/N=C/c3ccc(O)cc3)c2c1	57.9 µM
Cc1ccc(CC(=O)Nc2ncc([N+](=O)[O-])s2)cc1	78.5 µM
C/C(=N\N=C(N)N)c1ccc(Cl)c(Cl)c1	64.4 µM
COc1cccc2c(=O)c(C(=O)O)c[nH]c12	113 µM
CNC(CC(=O)c1ccc([N+](=O)[O-])cc1)C(Cl)(Cl)Cl (stereo unspecified)	82.7 µM
CCCCn1c(NS(=O)(=O)c2ccccc2)c(C(=O)OCC)c2nc3ccccc3nc21	58.9 µM
CCC(/C=C1\Sc2ccc(OC)cc2N1CCO)=C\c1sc2ccc(OC)cc2[n+]1CCO	32 µM

Compound	IC50
NC1=NC2(CCCCC2)N=C(Nc2ccc(Br)cc2)N1	35.9 µM
C#CCOCCOCCOCCNc1nc(N2CCN(C(=O)CCCCCCCCCCNC(=O)Cn3cc(CCCCCN)nn3)CC2)nc(N2CCN(C(=O)CCCCCCCCCCNC(=O)[C@@H]([C@H](C)O)n3cc(C)nn3)CC2)n1	115 µM
CNC[C@H](Cc1ccccc1)NC[C@@H](Cc1cccc2ccccc12)NCCc1ccc(C)cc1	14.8 µM
COc1cc(/C=C/[N+](=O)[O-])ccc1O	45 µM
CC[C@H]1OC(=O)[C@H](C)[C@@H](O[C@H]2C[C@@](C)(OC)[C@@H](O)[C@H](C)O2)[C@H](C)[C@@H](O[C@@H]2O[C@H](C)C[C@H](N(C)C)[C@H]2O)[C@](C)(O)C[C@@H](C)[C@@H]2N[C@@H](COCCOC)O[C@H]([C@H]2C)[C@]1(C)O	5.52 µM
O=C(c1cccs1)c1no[n+]([O-])c1C(=O)c1cccs1	39.8 µM
O=[N+]([O-])c1ccc(/C=[N+](\[O-])CCO)o1	88.9 µM
Clc1ccc(OCCCNCc2ccccc2)c(Br)c1	28.4 µM
Cc1ccc(NC2=NCCCS2)cc1Cl	126 µM
O=C(CC(=O)c1c(F)cccc1Cl)c1ccccc1O	42.9 µM
O=C(N/N=C/c1ccccn1)c1ccc(Br)o1	45.1 µM
COc1ccc(-c2cnc(NCc3cc4c(cc3[N+](=O)[O-])OCO4)n2C)cc1	145 µM
c1ccc(-c2nc3ccccc3[nH]2)cc1	93.5 µM
CC[C@@H](C)[C@H](CNC)NC[C@@H](Cc1cccc2ccccc12)NCCc1cccc(C(F)(F)F)c1	18.8 µM
CNC[C@@H](CC1CCCCC1)NC[C@H](CC(C)C)NCCc1cccc(C(F)(F)F)c1	18.8 µM
C[C@H]1c2cccc(O)c2C(O)=C2C(=O)[C@]3(O)C(O)=C(C(N)=O)C(=O)[C@@H](N(C)C)C3[C@@H](O)C21 (stereo partly specified)	0.68 µM
CCCCCCCCNc1ncnc2ccccc12	33.2 µM
O=C(N/N=C/c1ccc(O)c(O)c1)C1c2ccccc2Oc2ccccc21	64.8 µM
Cc1cccc(OCC(O)Cn2c(=N)n(CCN3CCCCC3)c3ccccc32)c1 (stereo unspecified)	10.4 µM
COc1nsnc1NS(=O)(=O)c1ccc(NC(=S)NC(=O)c2cccnc2)cc1	68.5 µM
O=C1C=C(Nc2ccccc2O)c2ccccc2C1=O	101 µM
O=C(Nc1nnc(-c2ccccn2)o1)c1cccc(Cl)c1	91.9 µM
Nc1nc(N)c(Cc2ccc(Cl)cc2Cl)c(N)n1	61.8 µM

Compound	IC50
Nc1nnnn1/N=C/c1cc([N+](=O)[O-])ccc1O	52.1 µM
CCCCOc1ccc(Br)cc1CSC(=N)N	14.2 µM
COc1cc([N+](=O)[O-])cc(/C=N/NC(=O)C(O)(c2ccccc2)c2ccccc2)c1O	80 µM
CN(C)CC/C=C1\c2ccccc2Sc2ccc(Cl)cc21	60 µM
CCCCCCCCCCCCCCCCn1cc[n+](C)c1	34.8 µM
CC[C@H]1OC(=O)[C@H](C)[C@@H](O[C@H]2C[C@@](C)(OC)[C@@H](O)[C@H](C)O2)[C@H](C)[C@@H](O[C@@H]2O[C@H](C)C[C@H](N(C)C)[C@H]2O)[C@](C)(O)C[C@@H](C)CN(C)[C@H](C)[C@@H](O)[C@]1(C)O	1.28 µM
CN(C)CCOCCOc1ccc(Cl)c2ccccc12	41.1 µM
O=c1c2ccccc2nc(N/N=C/c2c(O)ccc3ccccc23)n1O	16.2 µM
NC(N)=N/N=C/c1ccc(OCc2ccccc2Cl)cc1	39.5 µM
O=C(C[n+]1ccc(-c2ccccc2)cc1)Nc1ccc([N+](=O)[O-])cc1	26.3 µM
CCCNC1=C(C)C(=O)C2=C(C1=O)C(COC(N)=O)[C@]1(OC)C3NC3CN21 (stereo partly specified)	21.3 µM
CC1CCC(C(C)C)C(OC(=O)Cn2c(COc3ccccc3)[n+](C)c3ccccc32)C1 (stereo unspecified)	25.6 µM
O=C(Nc1ccccc1)Nc1nccs1	96 µM
CC1(CC(=O)N/N=C/c2cc([N+](=O)[O-])c(O)cc2O)OCCO1	74 µM
O=C(Nc1nc(-c2ccccn2)cs1)c1ccc(Br)s1	14.5 µM
Nc1ncncc1-c1ccc([N+](=O)[O-])cc1	43.9 µM
Cc1ccc2sc(N(CCCN(C)C)C(=O)c3ccc(Br)s3)nc2c1C	36.6 µM
CC(=O)Oc1ccccc1C(=O)Nc1ncc([N+](=O)[O-])s1	92 µM
COc1cccc(/C=N/NC(=O)c2ccoc2C)c1O	139 µM
CCOc1cc(CNCCCN2CCOCC2)cc(Br)c1OCC(=O)Nc1cccc(C(F)(F)F)c1	47.1 µM
O=c1[nH][nH]c(-c2ccccc2O)c1C(C[N+](=O)[O-])c1ccc(Br)cc1 (stereo unspecified)	63 µM
CC1CC(=O)c2c(cc3c(-c4c(O)cc(O)c5c(O)c6c(cc45)OC(C)CC6=O)c(O)cc(O)c3c2O)O1 (stereo unspecified)	28.6 µM
CC(C)(C)CC(C)(C)c1ccc(OCCOCC[N+](C)(C)Cc2ccccc2)cc1	21.6 µM

Compound	IC50
C/C(=N/Nc1ccnc2cc(Cl)ccc12)c1ccc(N)cc1	73.9 µM
CCCCOc1ccc(C(=O)OC2CC(C)N(C)CC2C)cc1 (stereo unspecified)	26.7 µM
Cc1cc(Br)ccc1OCCCCNCCO	30.7 µM
OC(CN1CCCCC1)Cn1c2ccccc2c2cc(Br)ccc21 (stereo unspecified)	37.8 µM
O=C(N/N=C/c1cc([N+](=O)[O-])ccc1O)c1cccc2cc[nH]c12	18.5 µM
COCCCNC(=S)NNC(=O)c1ccccn1	23.7 µM
COc1ccc2sc(N(CCCN(C)C)C(=O)c3ccc(S(=O)(=O)N4CCc5ccccc5C4)cc3)nc2c1	122 µM
CCN(CCC(=O)Nc1ccc(Br)c(C)c1)Cc1ccccc1	37.9 µM
COC(=O)N/N=C/c1c[n+]([O-])c2ccccc2[n+]1[O-]	92.1 µM
Cc1ccc(C)c(NC(=O)c2ccccc2O)c1	58.1 µM
CCN(CC)c1ccc(CNc2nc3ccccc3n2C)cc1	81.6 µM
Nc1nonc1C(=O)N/N=C/c1cc(Br)ccc1O	14 µM
CCCCCCCSc1cc(OC)c(CCNC)cc1OC	33.2 µM
CO[C@H]1/C=C/O[C@@]2(C)Oc3c(C)c(O)c4c(O)c(c(C=NN5CCN(C)CC5)c(O)c4c3C2=O)NC(=O)/C(C)=C\C=C\[C@H](C)[C@H](O)[C@@H](C)[C@@H](O)[C@@H](C)[C@H](OC(C)=O)[C@@H]1C	8.94 µM
CN1CCN(C(=O)CSc2ccc(Cl)cc2)CC1	113 µM
OC(CNCCc1ccc(C(F)(F)F)cc1)COC(c1ccccc1)c1ccccc1 (stereo unspecified)	29.6 µM
CC1(C)N=C(N)N=C(N)N1c1ccc(Oc2ccc(Cl)cc2)c(Cl)c1	36.3 µM
O=C(Cc1ccc(Br)cc1)c1ccc(O)cc1O	107 µM
O=C(Nc1c(Cl)ccc2nsnc12)c1ccc([N+](=O)[O-])o1	137 µM
Cc1ccccc1C(=O)Nc1cccc(C(=O)N/N=C/c2cc(Cl)cc([N+](=O)[O-])c2O)c1	32.9 µM
Clc1c(OCCCn2ccnc2)ccc2ccccc12	76.6 µM
CO[C@H]1C=CO[C@@]2(C)Oc3c(C)c(O)c4c(O)c(c5c(c4c3C2=O)NC2(CCN(CC(C)C)CC2)N=5)=NC(=O)C(C)=CC=C[C@H](C)[C@H](O)[C@@H](C)[C@@H](O)[C@@H](C)[C@H](OC(C)=O)[C@@H]1C	2.19 µM
OC1CCCN(Cc2ccc3ccc4cccc5ccc2c3c45)C1 (stereo unspecified)	59.9 µM

Compound	IC50
N=c1c2c(n(Cc3ccc(Cl)cc3)c3c1CCC3)CCC2	79.7 µM
CC1=NOC(=O)/C1=C/c1ccc(O)cc1	146 µM
O=C(Cn1nc(CNc2ccc(Cl)cc2)[n+]2c1CCCCC2)c1ccc(Br)cc1	57.2 µM
COc1cc(Br)cc(C=Nc2cccc(C(F)(F)F)c2)c1O	73.8 µM
NC1=NC[C@H](Cc2ccc(O)cc2)N1CCCCC1CCCCC1	13.9 µM
CCCCCCCSc1cc(OC)c(CCN(C)C)cc1OC	30.7 µM
CN1CCN(c2c(F)cc3c(=O)c(C(=O)O)cn4c3c2SCC4)CC1	6.28 µM and 8.88 µM
O=c1c2ccccc2[nH]c2ccccc12	62 µM
O=C(CCN1CCN(c2ccccc2F)CC1)c1ccc(Br)cc1	37.2 µM
Cc1ccc(Nc2c3c(nc4ccccc24)CCC3)cc1	25.8 µM
Cc1cc(OCCCCCNCCO)cc(C)c1Cl	107 µM
CC(Nc1nc(N2CCCC2)nc2ccccc12)c1ccccc1 (stereo unspecified)	76 µM
O=c1[nH]c(=S)ccn1C1OC(CO)C(O)C1O (stereo unspecified)	12.4 µM
CCn1cc(C(=O)O)c(=O)c2cc(F)c(N3CCN(C(=S)NC(=O)c4ccc(Br)cc4)CC3)cc21	56 µM
CC(NCC(O)COCCC12CC3CC(CC(C3)C1)C2)c1ccccc1 (stereo unspecified)	23.1 µM
Cc1ccc(C(=O)O)cc1N=Cc1cc(Br)cc(Br)c1O	16.7 µM
CCCCCC(=O)NNC(=S)NC(C)=O	29.1 µM
Cc1cc(C)c(OCCCCNCc2ccccc2)c(Cl)c1	61.3 µM
CCCCCc1ccc(OCCCC[n+]2cccc(C)c2)c(CCCCC)c1	64.9 µM
